Experimental data taken from patent publication US11365203B2, “Fluorescent dye and preparation method and use thereof” (Fluorescence Diagnosis (shanghai) Biotech Company Ltd., priority 2016, dated 2022).

Assay: Fluorescence emission spectra of molecular rotors in glycerin and methanol
Assay type: physicochemical
Settings: for Maximum Emission Wavelength: 1×10^−5 M in glycerin and methanol, excited at maximum excitation wavelength of each dye; for Fluorescence Intensity Ratios in Glycerol/Methanol: 1×10^−5 M, glycerol vs methanol solution
Protocol: The fluorescent dyes (molecular rotors) prepared in Examples 1-68 were separately dissolved in dimethyl sulfoxide to prepare respectively a mother liquor having a concentration of 1×10^−2 M, and each of the mother liquors was added individually to glycerin and methanol, and mixed uniformly, thereby solutions of a final concentration of 1×10^−5 M were prepared individually. According to the different fluorescent dyes, the fluorescence emission spectra of the fluorescent dyes were detected with the maximum excitation wavelengths of respective fluorescent dyes successively under the same conditions.

| Molecule | Maximum Emission Wavelength | Fluorescence Intensity Ratios in Glycerol/Methanol |
| --- | --- | --- |
| 6-[2-cyano-2-(2-phenylpropionazole)-vinyl]-2-dimethylamino-thieno[3,2-B:2′,3′-D]thiophene [Molecular Rotor 12] | 655 nm | 655 |
| CN(CCOCCCS(=O)(=O)O)c1cc2sc(C=C(C#N)C#N)cc2s1 [Molecular Rotor 4, 6-(2,2-dicyano-vinyl)-2-[N-methyl-N-(3-sulfonic acid propyloxyethyl)]-thieno[3,2,b]thiophene] | 557 nm | 892 |
| CNc1cc2sc(/C=C(\C#N)C(=O)O)cc2s1 [Molecular Rotor 5, 6-(2-cyano-2-formic acid)-2-methylamino-thieno[3,2,b]thiophene] | 555 nm | 1980 |
| COCCOCCOCCOCCOCCN(C)c1cc2sc(/C=C3\N=C(C)N(C)C3=O)cc2s1 [Molecular Rotor 6] | 585 nm | 1453 |
| COCCNC(=O)/C(C#N)=C/c1cc2sc(N(C)CCC#N)cc2s1 [Molecular Rotor 7] | 555 nm | 1877 |
| CC1(C)OC(=O)C(C#N)=C1c1cc2sc(O)cc2s1 [Molecular Rotor 10] | 520 nm | 851 |
| CN(C)c1cc2sc3cc(/C=C(\C#N)C(=O)OC(C)(C)C)sc3c2s1 [Molecular Rotor 11, 6-(2-cyano-2-tert-butyl formatevinyl)-2-dimethylamino-thieno[3,2-B:2′,3′-D]thiophene] | 620 nm | 568 |
| CN(CC(=O)O)c1cc2sc3cc(/C=C(\C#N)c4nc5ccccc5s4)sc3c2s1 [Molecular Rotor 13, 6-[2-cyano-2-(1,3-benzothiazol-2-yl)-vinyl]-2-N-m ethylamino-N-acetic acid-dithiophene[3,2-B:2′3′-D]thiophene] | 690 nm | 352 |
| CN(C)c1cc2sc3cc(C=C(C#N)C#N)sc3c2s1 [Molecular Rotor 14] | 620 nm | 681 |
| COCCNC(=O)/C(C#N)=C/c1cc2sc3cc(N4CCCC4)sc3c2s1 [Molecular Rotor 15] | 620 nm | 799 |
| CN(CC(O)C(O)C(O)C(O)CO)c1cc2sc3cc(/C=C(\C#N)C(=O)O)sc3c2s1 (stereo not drawn) [Molecular Rotor 16] | 620 nm | 951 |
| COC(=O)/C(C#N)=C/c1cc2sc3cc(N(CC(=O)O)CC(=O)O)sc3c2s1 [Molecular Rotor 17] | 618 nm | 888 |
| COCCOCCOCCOCCOCCOCCOCCOCCOCCOCCOCCOCCOCCOCCOCCNc1cc2sc3cc(/C=C4\N=C(C)N(C)C4=O)sc3c2s1 [Molecular Rotor 18] | 630 nm | 678 |
| CN1C(=O)/C(=C/c2cc3sc4cc(N(CCO)CCO)sc4c3s2)N=C1c1ccccc1 [Molecular Rotor 19] | 650 nm | 791 |
| CN1C(=O)/C(=C/c2cc3sc4cc(N(CCCl)CCCl)sc4c3s2)N=C1/C=C/c1ccccc1 [Molecular Rotor 20] | 690 nm | 536 |
| CCOC(=O)/C(C#N)=C/c1cc2sc3cc(N4CCOCC4)sc3c2s1 [Molecular Rotor 21] | 620 nm | 544 |
| CN(CCO)c1ccc2cc(/C=C(\C#N)c3nc4ccccc4o3)sc2c1 [Molecular Rotor 23] | 608 nm | 568 |
| N#C/C(=C\c1cc2ccc(N(CCO)CCO)cc2s1)c1nc2ccccc2s1 [Molecular Rotor 24] | 608 nm | 912 |
| CCCCCCCCCCN(CCCCCCCCCC)c1ccc2cc(C=C(C#N)C#N)sc2c1 [Molecular Rotor 25] | 570 nm | 615 |
| CN1C(=O)/C(=C\c2cc3ccc(N(C)CCOCCC(=O)O)cc3s2)N=C1c1ccccc1 [Molecular Rotor 26] | 610 nm | 712 |
| CCCCN(CC(O)CO)c1ccc2cc(/C=C3/N=C(C)N(C)C3=O)sc2c1 (stereo not drawn) [Molecular Rotor 27] | 600 nm | 601 |
| CCCCN(CCO)c1ccc2cc(/C=C3N=C(/C=C/c4ccccc4)N(C)C/3=O)sc2c1 [Molecular Rotor 28] | 650 nm | 569 |
| COCCOCCOCCOCCOCCN(C)c1ccc2cc(/C=C(\C#N)C(=O)O)sc2c1 [Molecular Rotor 29] | 570 nm | 515 |
| COCCNC(=O)/C(C#N)=C/c1cc2ccc(OC)cc2s1 [Molecular Rotor 30] | 520 nm | 513 |

| Molecule | Maximum Emission Wavelength | Fluorescence Intensity Ratios in Glycerol/Methanol |
| --- | --- | --- |
| COC(=O)/C(C#N)=C/c1cc2ccc(O)cc2s1 [Molecular Rotor 31] | 535 nm | 572 |
| COc1c(/C=C(\C#N)C(=O)OC(C)(C)C)sc2c(OC)c(N(C)C)sc12 [Molecular Rotor 32] | 570 nm | 612 |
| COc1c(/C=C(\C#N)C(=O)O)sc2c(OC)c(N(C)C)sc12 [Molecular Rotor 33] | 565 nm | 531 |
| CN(C)c1ccc2c(c1)sc1cc(C=C(C#N)C#N)sc12 [Molecular Rotor 34] | 626 nm | 1012 |
| CN(CCO)c1ccc2c(c1)sc1cc(/C=C(\C#N)C(=O)OC(C)(C)C)sc12 [Molecular Rotor 35] | 626 nm | 476 |
| COCCNC(=O)/C(C#N)=C/c1cc2sc3cc(N(CCO)CCO)ccc3c2s1 [Molecular Rotor 36] | 628 nm | 901 |
| CNc1ccc2c(c1)sc1cc(/C=C(\C#N)C(=O)O)sc12 [Molecular Rotor 37] | 627 nm | 879 |
| COCCOCCOCCOCCOCCN(C)c1ccc2c(c1)sc1cc(/C=C(\C#N)c3nc4ccccc4o3)sc12 [Molecular Rotor 38] | 650 nm | 623 |
| CN(CCC#N)c1ccc2c(c1)sc1cc(/C=C(\C#N)c3nc4ccccc4s3)sc12 [Molecular Rotor 39] | 667 nm | 541 |
| CCCCN(CCO)c1ccc2c(c1)sc1cc(/C=C3/N=C(c4ccccc4)N(C)C3=O)sc12 [Molecular Rotor 40] | 659 nm | 652 |
| CN(C)c1cc2cc3sc(C=C(C#N)C#N)cc3cc2s1 [Molecular Rotor 41] | 558 nm | 875 |
| CCCCCCCCCCN(CCCCCCCCCC)c1cc2cc3sc(/C=C(\C#N)C(=O)OC(C)(C)C)cc3cc2s1 [Molecular Rotor 42] | 558 nm | 924 |
| CN(CCO)c1cc2cc3sc(/C=C(\C#N)c4nc5ccccc5o4)cc3cc2s1 [Molecular Rotor 43] | 582 nm | 816 |
| CNc1cc2cc3sc(/C=C(\C#N)c4nc5ccccc5s4)cc3cc2s1 [Molecular Rotor 44] | 603 nm | 631 |
| COCCOCCOCCOCCOCCN(C)c1cc2cc3sc(/C=C4/N=C(C)N(C)C4=O)cc3cc2s1 [Molecular Rotor 45] | 585 nm | 812 |
| COCCNC(=O)/C(C#N)=C/c1cc2cc3sc(N4CCCC4)cc3cc2s1 [Molecular Rotor 46] | 563 nm | 712 |
| CN(CCC#N)c1cc2cc3sc(/C=C(\C#N)C(=O)O)cc3cc2s1 [Molecular Rotor 47] | 561 nm | 912 |
| CN(CCO)c1cc2cc3cc(C=C(C#N)C#N)sc3cc2s1 [Molecular Rotor 48] | 562 nm | 608 |
| CN(CCOCCCS(=O)(=O)O)c1cc2cc3cc(/C=C(\C#N)C(=O)OC(C)(C)C)sc3cc2s1 [Molecular Rotor 49] | 559 nm | 612 |
| CC1=N/C(=C/c2cc3cc4cc(N(CCO)CCO)sc4cc3s2)C(=O)N1C [Molecular Rotor 50] | 587 nm | 777 |
| CNc1cc2cc3cc(/C=C4/N=C(c5ccccc5)N(C)C4=O)sc3cc2s1 [Molecular Rotor 51] | 599 nm | 535 |
| COCCOCCOCCOCCOCCN(C)c1cc2cc3cc(/C=C(\C#N)c4nc5ccccc5o4)sc3cc2s1 [Molecular Rotor 52] | 578 nm | 680 |
| CN(CCC#N)c1cc2cc3cc(/C=C(\C#N)c4nc5ccccc5s4)sc3cc2s1 [Molecular Rotor 53] | 599 nm | 915 |
| COCCNC(=O)/C(C#N)=C/c1cc2cc3cc(N4CCOCC4)sc3cc2s1 [Molecular Rotor 54] | 563 nm | 722 |
